Literature values, collected in publication PMC2709231 (European Journal of Nuclear Medicine and Molecular Imaging, 2009).

Settings: human, in vivo

Q: Which “Side effects of radionuclide therapy” value does the source give for “^90Y-DTPA-(D)Glu^1-(Glu)5-Ala-Tyr-Gly-Trp-Met-Asp-Phe-NH2 [^90Y-DTPA-DGlu^1-minigastrin]” here?
A: The value was “serious side effects, including renal insufficiency and bone marrow toxicity”.
